Data from article PMC9721426, “Novel piperine-carboximidamide hybrids: design, synthesis, and antiproliferative activity via a multi-targeted inhibitory pathway” (Journal of Enzyme Inhibition and Medicinal Chemistry, 2022).
Where two headings read alike, the source gives them in different places.

Tests used:
[1] = test system: MCF-7 (breast cancer cell line); assay: Antiproliferative MTT assay, MCF-7; format: cell-based; details: Homo sapiens, MCF7; MCF-7, MTT; read-out: Antiproliferative activity IC50 ± SEM, MCF-7
Experimental: (§1) The MTT assay was performed using various cell lines in accordance with previously reported procedures[28]^,[29] to investigate the antiproliferative potential of VIa-k. Refer to Appendix A. […]
(§2) added (in 200 μL medium to yield a final concentration of 0.1% v/v) to the wells of plates. A single compound was designated with four wells followed by incubation of […]
(§3) After incubation, medium was removed completely from the plates followed by addition of MTT (0.4 mg/mL in medium) to each well and subsequent incubation of plates for 3h. MTT (along with the medium) was removed and DMSO (150μL) was added to each well of the culture plates, followed by vortexing and subsequent measurement of absorbance (at 540 nm) using microplate reader. The data are shown as percentage inhibition of proliferation in comparison with controls containing 4.2.1.2. Assay for antiproliferative effect […]
(§4) The percentage cytotoxicity of compounds was calculated using the following […]
(§5) Where ATC= Absorbance of treated cells and AC= Absorbance of control. […]
(§6) used as positive control in the assay. […]

[2] = test system: Panc-1 (pancreatic cancer cell line); assay: Antiproliferative MTT assay, Panc-1; format: cell-based; details: Homo sapiens; Panc-1, MTT; read-out: Antiproliferative activity IC50 ± SEM, Panc-1
Experimental: as §1, §2, §3, §4, §5, §6

[3] = MTT cell viability assay on normal mammary epithelial cells; format: cell-based; details: human, MCF-10A mammary epithelial cells, MCF-10A normal cells, 4 days incubation
Experimental: A human mammary gland epithelial (MCF-10A) normal cell line was used to perform the viability test. The viability of compounds VIa-k was determined using the MTT assay after 4 days of incubation with MCF-10A cells[26]^,[27].
The MTT assay was used to assess how the synthetic compounds impacted the viability of mammary epithelial cells (MCF-10A)[26]^,[27]. Appendix A. […]
4.2. Biological evaluation
4.2.1. Cytotoxic activity using MTT Assay and evaluation of IC50
MTT assay was carried out to study the effect of compounds on mammary epithelial cells (MCF-10A)26,27. The medium in which cells were propagated contained Dulbecco's modified Eagle's medium (DMEM)/ Ham's F-12 medium (1:1) supplemented with epidermal growth factor (20 ng/mL), hydrocortisone (500 ng/mL), insulin (10 μg/mL), 2 mM glutamine and 10% foetal calf serum. After every 2-3 days, the cells were passaged using trypsin ethylenediamine tetra acetic acid (EDTA). The cells were seeded at a density of 10^4 cells mL-1 in flat-bottomed culture plates containing 96 wells each. […]
A single compound was designated with four wells followed by incubation of plates for 96h at 37°C. After incubation, medium was removed completely from the plates followed by addition of MTT (0.4 mg/mL in medium) to each well and subsequent incubation of plates for 3h. MTT (along with the medium) was removed and DMSO (150μL) was added to each well of the culture plates, followed by vortexing and subsequent measurement of absorbance (at 540 nm) using microplate reader. […]

[4] = test system: A-549 (epithelial cancer cell line); assay: Antiproliferative MTT assay, A-549; format: cell-based; details: Homo sapiens, A549; A-549, MTT; read-out: Antiproliferative activity IC50 ± SEM, A-549
Experimental: as §1, §2, §3, §4, §5, §6

[5] = test system: HT-29 (colon cancer cell line); assay: Antiproliferative MTT assay, HT-29; format: cell-based; details: Homo sapiens; HT-29, MTT; read-out: Antiproliferative activity IC50 ± SEM, HT-29
Experimental: as §1, §2, §3, §4, §5, §6

[6] = test system: four human cancer cell lines (Panc-1, MCF-7, HT-29, A-549); assay: Antiproliferative MTT assay, average (GI50) over the four cancer cell lines; format: cell-based; details: for GI50: Homo sapiens, average of IC50 versus A-549, MCF-7, Panc-1, HT-29; for GI50 potency relative to VIi (less potent): ratio of GI50 values
Experimental: The average (GI50) versus the four cancer cell lines was chosen for ease of manipulation.
as §1, §2, §3, §4, §5, §6

CDK2 = test system: CDK2; parameters: method as in PMID 35667253; details: cited from earlier work
EGFR [7] = biological target: T1, EGFR (Homo sapiens, UniProt P00533); parameters: method as in PMID 35667253; details: cited from earlier work
T1 construct: cytoplasmic domain (EGFR -CD, amino acids 645–1186); His6 (N); made in house; host or cells: Sf-9 insect cells (baculovirus, pBlueBacHis2B / pFASTBacHTc)
T1 sequence (P00533 669-1210): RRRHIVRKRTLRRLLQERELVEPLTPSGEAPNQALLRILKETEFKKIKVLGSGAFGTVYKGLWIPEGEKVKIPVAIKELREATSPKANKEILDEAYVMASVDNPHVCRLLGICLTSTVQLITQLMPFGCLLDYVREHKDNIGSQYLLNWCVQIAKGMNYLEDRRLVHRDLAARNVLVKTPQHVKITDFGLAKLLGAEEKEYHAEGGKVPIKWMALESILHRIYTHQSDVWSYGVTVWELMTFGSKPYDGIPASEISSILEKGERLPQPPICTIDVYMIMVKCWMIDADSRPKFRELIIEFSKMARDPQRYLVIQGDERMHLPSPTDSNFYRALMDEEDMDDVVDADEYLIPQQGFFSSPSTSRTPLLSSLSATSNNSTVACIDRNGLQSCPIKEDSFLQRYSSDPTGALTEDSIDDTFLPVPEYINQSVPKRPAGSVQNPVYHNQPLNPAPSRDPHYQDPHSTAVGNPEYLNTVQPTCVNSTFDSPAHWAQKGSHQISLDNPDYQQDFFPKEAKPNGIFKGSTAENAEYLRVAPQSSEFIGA

c-Met = test system: c-Met; parameters: method as in PMID 35667253; details: cited from earlier work
four cancer cell lines = test system: four cancer cell lines; parameters: method as in PMID 35667253; details: read-out: GI50 against the tested four cancer cell lines; cited from earlier work
EGFR [8] = biological target: T1, EGFR; assay: EGFR-TK inhibitory assay; format: biochemical; details: for IC50: EGFR-TK assay, read-out: EGFR inhibition IC50 ± SEM
Experimental: 4.2.1.3. EGFR inhibitory assay
EGFR-TK assay was performed to evaluate the inhibitory potency of the tested compounds against EGFR30. Baculoviral expression vectors including pBlueBacHis2B […]
sequence comprised a sequence that encoded (His) 6. Sf-9 cells were infected for 72h for protein expression. The pellets of Sf-9 cells were solubilized in a buffer containing sodium vanadate (100 µM), aprotinin (10 µg/mL), triton (1%), HEPES buffer (50mM), ammonium molybdate (10 µM), benzamidine HCl (16 µg/mL), NaCl (10 mM), leupeptin (10 µg/mL) and pepstatin (10 µg/mL) at 0°C for 20 min at pH 7.4, followed by centrifugation for 20 min. To eliminate the non-specifically bound material, a Ni-NTA super flow packed column was used to pass through and wash the crude extract supernatant first with 10 mM and then with 100 mM imidazole. […]
NaCl (50 mM), HEPES (20 mM), glycerol (10%) and 1 µg/mL each of aprotinin, leupeptin and pepstatin for 120 min. The purification was performed either at 4 °C or on ice. To record autophosphorylation level, EGFR kinase assay was carried out on the basis of DELFIA/Time-Resolved Fluorometry. The compounds were first dissolved in DMSO […]
pH 7.4. Each compound (10 µL) was incubated with recombinant enzyme (10 µL, 5 ng for EGFR, 1:80 dilution in 100 mM HEPES) for 10 min at 25 °C, subsequent to the addition of 5X buffer (10 µL, containing 2 mM MnCl2, 100 µM Na3VO4, 20 mM HEPES and 1 mM DTT) and ATP-MgCl2 (20 µL, containing 0.1 mM ATP and 50 mM MgCl 2) and incubation for 1h. The negative and positive controls were included in each plate by the incuba tion of enzyme either with or without ATP -MgCl2. The liquid was removed after incubation and the plates were washed thrice using wash buffer. Europium -tagged antiphosphotyrosine antibody (75 µL, 400 ng) was added to each well followed by incubation of 1h a nd then washing of the plates using buffer. The enhancement solution was added to each well and the signal was recorded at excitation and emission […]
The autophosphorylation percentage inhibition by compounds was calculated using the following equation: […]
Using the curves of percentage inhibition of eight concentrations of each compound, IC 50

Human CDK2/A2 = Human CDK2/A2 (Homo sapiens, UniProt P24941); assay: CDK2 inhibitory assay
Experimental: Protein Kinase Assays. Human CDK2/A2 was purchased from New England Biolabs IC50 values for CDK2/A were determined according to the supplier’s instructions

BRAF^V600E [9] = biological target: T2, BRAF^V600E (Mus musculus, UniProt P28028, V585E); assay: BRAF V600E kinase assay; format: biochemical; details: read-out: BRAF^V600E inhibition IC50 ± SEM
T2 construct: Mouse full-length GST-tagged BRAFV600E; GST; purchased Invitrogen PV3849
T2 sequence (P28028 whole entry V585E): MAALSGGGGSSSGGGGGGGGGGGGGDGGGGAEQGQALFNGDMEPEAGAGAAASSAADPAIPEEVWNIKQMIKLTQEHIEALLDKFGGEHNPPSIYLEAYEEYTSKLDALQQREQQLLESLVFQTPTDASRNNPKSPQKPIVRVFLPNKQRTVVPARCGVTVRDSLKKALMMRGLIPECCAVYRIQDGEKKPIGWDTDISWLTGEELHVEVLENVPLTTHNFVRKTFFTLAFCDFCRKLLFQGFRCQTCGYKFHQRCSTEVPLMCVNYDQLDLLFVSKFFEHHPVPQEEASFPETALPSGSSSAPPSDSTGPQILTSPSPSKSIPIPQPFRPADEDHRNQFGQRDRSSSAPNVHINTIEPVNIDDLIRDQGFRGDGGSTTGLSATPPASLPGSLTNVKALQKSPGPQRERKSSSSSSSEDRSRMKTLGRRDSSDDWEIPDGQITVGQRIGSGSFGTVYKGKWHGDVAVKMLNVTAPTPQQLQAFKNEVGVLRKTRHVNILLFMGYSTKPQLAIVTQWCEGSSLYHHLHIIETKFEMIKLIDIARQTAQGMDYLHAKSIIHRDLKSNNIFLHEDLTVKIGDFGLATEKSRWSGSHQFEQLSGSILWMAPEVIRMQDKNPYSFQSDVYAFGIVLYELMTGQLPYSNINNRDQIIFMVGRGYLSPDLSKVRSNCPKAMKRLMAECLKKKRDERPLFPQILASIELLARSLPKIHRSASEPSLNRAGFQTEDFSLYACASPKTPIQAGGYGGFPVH
Experimental: An in vitro study was conducted to evaluate the anti-BRAF^V600E of VIc, VIf, VIg, VIi, and VIk[31]. […] An in vitro study[31] was conducted to evaluate the anti-BRAF^V600E of VIc, VIf, VIg, VIi, and Vik. See Appendix A.
4.2.1.4. BRAF kinase assay
V600E mutant BRAF kinase assay was performed to investigate the activity of the most […]
Mouse full-length GST-tagged BRAFV600E (7.5 ng, Invitrogen, PV3849) was pre-incubated with drug (1 µL) and assay dilution buffer (4 µL) for 60 min at 25 °C. In assay dilution buffer, a solution (5 µL) containing MgCl 2 (30 mM), ATP (200 µM), recombinant human full length (200 ng) […] N-terminal His-tagged MEK1 (Invitrogen) was added to start the assay, subsequent to incubation for 25 min at 25 °C. The assay was stopped using 5X protein denaturing buffer (LDS) solution (5 µL).
To further denature the protein, heat (70° C) was applied for 5 min.
NuPage gel plates (Invitrogen) were used to carry out electrophoresis (at 200 V). 10 µL of each reaction was loaded into the precast plates and electrophoresis was allowed to proceed. After completion of electrophoresis, the front part of the precast gel plate (holding hot ATP) was cut and afterw ards cast-off. The dried gel was developed using a […]
that containing no inhibitor served as positive control. […]

p38α = test system: p38α; parameters: method as in earlier work; details: cited from earlier work
BRAF^V600E [10] = test system: BRAF^V600E; parameters: method as in earlier work; details: cited from earlier work

SMILES	IC50 [1] [nM]	IC50 [2] [nM]	IC50 [4] [nM]	IC50 [5] [nM]	GI50 [6] [nM]	GI50 potency relative to VIi (less potent) [6]	melting point [°C]	IC50 (EGFR [8]) [nM]	IC50 (Human CDK2/A2) [nM]	IC50 (BRAF^V600E [9]) [nM]	EGFR potency relative to erlotinib (lower) (EGFR [8]; ratio of IC50 values) [fold]	viability at 4 days, 50 µM [3] [%]	IC50 (CDK2) [nM]	IC50 (EGFR [7]) [nM]	IC50 (c-Met) [nM]	GI50 (four cancer cell lines) [nM]	IC50 (p38α) [nM]	IC50 (BRAF^V600E [10]) [nM]
COc1cc(OC)cc(/C(N)=N/OC(=O)c2ccc3cn[nH]c3c2)c1 [Compound 5]													14	89	4.1	770		
NC(=NOC(=O)/C=C/C=C/c1ccc2c(c1)OCO2)c1ccc(Cl)cc1 [VIb, N'-{[(2E,4E)-5-(2H-1,3-Benzodioxol-5-yl)penta-2,4-dienoyl]oxy}-4-chlorobenzene-1-carboximidamide]	57 ± 6	59 ± 6	55 ± 6	58 ± 6	57		157 to 160					85						
Cc1ccc(C(N)=NOC(=O)/C=C/C=C/c2ccc3c(c2)OCO3)cc1 [VIe, N'-{[(2E,4E)-5-(2H-1,3-Benzodioxol-5-yl)penta-2,4-dienoyl]oxy}-4-methylbenzene-1-carboximidamide]	73 ± 7	75 ± 7	69 ± 7	75 ± 7	73		185 to 188					89						
CCCCCCn1c(-c2ccc(C(=O)O/N=C(\N)c3cccc4c3OCO4)cc2)nc(-c2ccccc2)c1-c1ccccc1 [Compound 4]																	190	330
NC(=NOC(=O)/C=C/C=C/c1ccc2c(c1)OCO2)c1cccc(Br)c1 [VIh, N'-{[(2E,4E)-5-(2H-1,3-benzodioxol-5-yl)penta-2,4-dienoyl]oxy}-3-bromobenzene-1-carboximidamide]	64 ± 6	69 ± 6	61 ± 6	67 ± 6	65		141 to 143					91						

Continued, in another order:

IC50 [1] [nM]	IC50 [2] [nM]	IC50 [4] [nM]	IC50 [5] [nM]	GI50 [6] [nM]	GI50 potency relative to VIi (less potent) [6]	melting point [°C]	IC50 (EGFR [8]) [nM]	IC50 (Human CDK2/A2) [nM]	IC50 (BRAF^V600E [9]) [nM]	EGFR potency relative to erlotinib (lower) (EGFR [8]; ratio of IC50 values) [fold]	SMILES	viability at 4 days, 50 µM [3] [%]	IC50 (CDK2) [nM]	IC50 (EGFR [7]) [nM]	IC50 (c-Met) [nM]	GI50 (four cancer cell lines) [nM]	IC50 (p38α) [nM]	IC50 (BRAF^V600E [10]) [nM]
81 ± 8	84 ± 8	78 ± 8	88 ± 9	83	2 fold						N/C(=N/OC(=O)/C=C/C=C/c1ccc2c(c1)OCO2)c1cccc2ccccc12 [VIj, N'-{[(2E,4E)-5-(2H-1,3-benzodioxol-5-yl)penta-2,4-dienoyl]oxy} naphthalene-1-carboximidamide]	85						
52 ± 5	57 ± 5	50 ± 5	57 ± 5	54	about 1.4 fold						COc1ccc(C(N)=NOC(=O)/C=C/C=C/c2ccc3c(c2)OCO3)cc1 [VId, N'-{[(2E,4E)-5-(2H-1,3-Benzodioxol-5-yl)penta-2,4-dienoyl]oxy}-4-methoxybenzene-1-carboximidamide]	91						
39 ± 3	40 ± 4	36 ± 4	40 ± 4	39		147 to 149	120 ± 10	17 ± 2	72 ± 7		COc1ccc(C(N)=NOC(=O)/C=C/C=C/c2ccc3c(c2)OCO3)cc1OC [VIi, N'-{[(2E,4E)-5-(2H-1,3-benzodioxol-5-yl)penta-2,4-dienoyl]oxy}-3,4-dimethoxybenzene-1-carboximidamide]	89						
47 ± 5	49 ± 5	42 ± 5	49 ± 5	47		163 to 165	96 ± 6	20 ± 2	63 ± 6	1.2	NC(=NOC(=O)/C=C/C=C/c1ccc2c(c1)OCO2)c1cccc(Cl)c1 [VIg, N'-{[(2E,4E)-5-(2H-1,3-benzodioxol-5-yl)penta-2,4-dienoyl]oxy}-3-chlorobenzene-1-carboximidamide]	87						
97 ± 10	104 ± 10	95 ± 10	105 ± 10	100		175 to 177					NC(=NOC(=O)/C=C/C=C/c1ccc2c(c1)OCO2)c1ccccc1 [VIa, N'-{[(2E,4E)-5-(2H-1,3-Benzodioxol-5-yl)penta-2,4-dienoyl]oxy}benzene carboximidamide]	89						
